# Test results taken from article PMC11395219 (Molecular Cancer, 2024).
# Target: T1, Vitamin D receptor (VDR) (Homo sapiens, UniProt P11473)
# T1 sequence (P11473 118-427 limits assumed): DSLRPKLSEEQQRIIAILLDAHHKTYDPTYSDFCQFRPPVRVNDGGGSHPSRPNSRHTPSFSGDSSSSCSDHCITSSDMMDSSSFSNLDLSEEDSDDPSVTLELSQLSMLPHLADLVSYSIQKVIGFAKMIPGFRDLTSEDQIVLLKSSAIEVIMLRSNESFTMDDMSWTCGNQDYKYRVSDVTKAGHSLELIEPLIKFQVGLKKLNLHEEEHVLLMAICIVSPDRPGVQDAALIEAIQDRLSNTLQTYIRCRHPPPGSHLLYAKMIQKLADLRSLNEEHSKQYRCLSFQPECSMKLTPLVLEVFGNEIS
# Experiment: SPR
# Type: binding
compound,measurement,value
O=c1cc(-c2ccc(O)cc2)oc2c([C@@H]3O[C@H](CO)[C@@H](O)[C@H](O)[C@H]3O)c(O)cc(O)c12 [vitexin],Kd,34.7 µM
